# Measurements published in patent publication US9243247B2, “Composition for promoting apoptosis or inhibiting cell growth, comprising epstein-barr virus microrna” (Catholic University Industry Academic Cooperation Foundation, priority 2011, dated 2016).
# Key:
# Type in all cases: cell-based
# [1] = tested on: AGS cell strain; assay: Effect on cell cycle (propidium iodide staining, FACS, sub G1); details: for Relative Sub G1: mimic 10 nM, 10 uM 5-FU 24 h after transfection, then 48 hours, relative to scrambled control (=1)
# In short: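 AGS gastric cells (EBV-negative), 2×10^5 per well, were transfected with synthetic miRNA (10 nM). DNA was stained with propidium iodide, and the cell-cycle-altered fraction was measured by FACS.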
# [2] = tested on: TAX1BP1 mRNA; assay: TAX1BP1 mRNA level by QRT-PCR; details: AGS; after transfection; listed as miR-BART15-3p
# Method: (§1) miR-BART15-3p was transfected to AGS by using lipofectamine-2000. Forty eight hours after the transfection, the cells were harvested and a QRT-PCR and a Western blotting were performed (FIGS. 12A and 12B). The BIRC6 mRNA level was not changed in the AGS to which miR-BART15-3p was transfected, while the protein level was decreased.
# Different from BIRC6, the mRNA level of TAX1BP1 was decreased in the AGS to which miR-BART15-3p was transfected (FIG. 12E).
# [3] = tested on: AGS cell strain; assay: Measurement of apoptosis (Annexin V staining, FACS); details: for Relative Apoptotic cell: mimic 10 nM, 10 uM 5-FU 24 h after transfection, then 48 hours, Annexin V, relative to scrambled control (=1), n=9
# In short: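 EBV-negative AGS cells (2×10^5/well) were transfected with 10 nM synthetic miRNA. Twenty-four hours later they received 10 uM 5-FU for 48 h at 37 °C. The apoptotic cell ratio was measured by PE Annexin V staining and FACS.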
# [4] = tested on: BIRC6 protein; assay: BIRC6 protein level by Western blotting; details: AGS; 48 hours after transfection; listed as miR-BART15-3p
# Method: as §1
# An miR-BART15-3p inhibitor was transfected to AGS-EBV by using lipofectamine-2000. Forty eight hours after the transfection, the cells were harvested and a QRT-PCR and a Western blotting were performed (FIGS. 12C and 12D). The BIRC6 mRNA level was not changed in the AGS-EBV to which an miR-BART15-3p inhibitor was transfected, while the protein level was increased.
# [5] = tested on: 3′UTR of BIRC6; assay: Dual luciferase reporter assay (psiCHECK) in HEK293T, BIRC6 3'UTR; details: for renilla value: 48 hours
# Excerpt: For an miRNA target test, to psiCHECK, which is a luciferase vector (FIG. 9) specially designed for an miRNA target test including a firefly gene and a renilla gene in the same vector, a 3′UTR of the five genes shown in Table 5, which might be targeted by miR-BART15-3p, was individually cloned to prepare a vector for a target test for each of the genes.
# HEK293T was divided into a 96-well plate such that 5×10^3 cells were allocated to each well, and miR-BART15-3p and a vector for a target test were transfected by using lipofectamine2000. Forty eight hours after the transfection, a dual luciferase reporter assay (Virology. 412(2), 392-400 (2011)) was performed to normalize the results with reference to firefly luciferase and observe a variation of the renilla luciferase gene expression. […] The renilla value was not decreased by […] which was formed by mutating a seed part of miR-BART15-3p (FIG. 10).
# BIRC6 3′UTR included two target sites which might be hybridized with miR-BART15-3p. To verify whether these two sites are directly targeted by miR-BART15-3p, a point mutation was performed at a psiC-BIRC6 site which was seed-matched with miR-BART15-3p to prepare psiC-BIRC6m1 and psiC-BIRC6m2. Both of the sites were mutated to prepare psiC-BIRC6m1m2 (FIG. 11A).
# HEK293T was divided into a 96-well plate such that 5×10^3 cells were allocated to each well, and miR-BART15-3p and a vector for a target test were transfected by using lipofectamine-2000. Forty eight hours after the transfection, a dual luciferase reporter assay (Virology. 412(2), 392-400 (2011)) was performed to normalize the results with reference to firefly luciferase and observe a variation of the renilla luciferase gene expression. The renilla value was not decreased in psiC-BIRC6m1 and psiC-BIRC6m1m2 by, while the renilla value was decreased in psiC-BIRC6m2 as in the case of psiC-BIRC6.
# [6] = AGS, mimic 10 nM in combination with 10 uM 5-FU
substance,measurement,setting,value
"BART15-3p: EBV BART miRNA mimic, double stranded RNA; sense SEQ NO: 15, antisense SEQ NO: 16 (sense GUCAGUGGUUUUGUUUCCUUGA; antisense UCAAGGAAACAAAACCACUGAC; chemistry not given here)",ratio of sub G1 after the 5-FU treatment,[1]; mimic 10 nM plus 10 uM 5-FU (Example 6),greatly increased
same,percentage of sub G1,"[1]; mimic 10 nM transfected alone, versus scrambled control",significantly higher
same,Relative Sub G1,[1],2.508
same,Relative Sub G1,[1]; listed as 15-3p,increased
same,mRNA level of TAX1BP1,[2],decrease
same,ratio of early apoptotic cell,[3]; [6],increased
same,ratio of late apoptotic cell,[3]; [6],increased
same,"degree of apoptosis, combination with 5-FU versus sum of single treatments","[3]; AGS, mimic 10 nM plus 10 uM 5-FU",synergetic effect
same,ratio of early apoptotic cell,"[3]; AGS, mimic 10 nM treated alone",increased
same,ratio of late apoptotic cell,"[3]; AGS, mimic 10 nM treated alone",increased
same,Relative Apoptotic cell,[3]; AGS,1.665
same,Relative Apoptotic cell,"[3]; AGS, listed as 15-3p",significantly higher
same,effect on cell growth and apoptosis (summary statement),"[3]; mimics transfected to AGS, tumor cell strain not infected with EBV",inhibit cell growth and promote apoptosis
same,BIRC6 protein level,[4],decrease
same,renilla value,[5]; psiC-BIRC6m1 (point mutation of site 1),not decreased
same,renilla value,[5]; psiC-BIRC6m1m2 (both sites mutated),not decreased
same,renilla value,[5]; psiC-BIRC6m2 (point mutation of site 2),decreased
same,"renilla value (renilla luciferase, normalized to firefly)","[5]; psiCHECK with BIRC6 3′UTR (psiC-BIRC6), 48 hours after transfection, listed as miR-BART15-3p",decreased
